In assay [1] the test system is Bacteroides fragilis. Kind of assay: MIC agar dilution assay, anaerobe bacteria (Table 1). Format: cell-based. For orientation: In agar dilution the substance is mixed into plates at graded concentrations.
Assay [2] deals with Strept. pyogenes C 203. As to the kind of experiment: animal or person. As to conditions: for ED50: Streptococcus pyogenes, C203, in Mus musculus, 168 h. The method, then: (§1) In this test, white mice (weight 20±2 g) of Charles River strain CDI received an intraperitoneal injection of a specific amount of a suspension of a bacterial cell culture. The amount is sufficient to cause death of untreated animals within 24-48 hrs. A half hour later, the test animals were administered either an oral or a subcutaneous dosing of the test compound in 0.5 ml of 0.2% starch solution. With streptococcal infections, the test animals received a second dose after 3 hrs. Each test group had 5 animals and each test was performed three times. The ED50 values were calculated on the basis of the survivors at 7 days. An estimate of the oral absorption of the test compounds was determined from the ratio of the ED50 values from the oral and subcutaneous dosings.

Assay [3] relates to Escherichia coli 314. As to the kind of experiment: animal or person. The conditions noted are these: for ED50: Escherichia coli, 314, in Mus musculus, 168 h. Here is the method: as §1
For assay [4], the system named is Staph. aureus Smith. As to the kind of experiment: animal or person. As to conditions: for ED50: Staphylococcus aureus, in Mus musculus, 168 h. Here is the method: as §1
The subject of assay [5] is Strept. pneum. SVI. As to the kind of experiment: animal or person. The conditions noted are these: for ED50: Mus musculus, 168 h. Here is the method:
as §1

Assay [6] relates to Staph. aureus SSC-80-32. Kind of assay: animal or person. The conditions noted are these: for ED50: Staphylococcus aureus, SSC8032, in Mus musculus, 168 h. The method, then: as §1
Assay [7] has as its system Klebsiella pneum. AD. As to the kind of experiment: animal or person. As to conditions: for ED50: Klebsiella, in Mus musculus, 168 h. The method, then:
as §1

Assay [8] concerns Staphylococcus aureus MRSA. As to the kind of experiment: MIC agar dilution assay (Table 1). Format: cell-based. As to conditions: for MIC50: read-out: MIC, 50% Inhibitious; for MIC90: read-out: MIC, 90% Inhibitious.
The subject of assay [9] is Streptococcus faecalis. As to the kind of experiment: MIC agar dilution assay (Table 1). Format: cell-based. As to conditions: Enterococcus faecalis; for MIC50: read-out: MIC, 50% Inhibitious; for MIC90: read-out: MIC, 90% Inhibitious.
Assay [10] has as its system Streptococcus beta-hemolytic. As to the kind of experiment: MIC agar dilution assay (Table 1). Format: cell-based. The conditions noted are these: for MIC50: read-out: MIC, 50% Inhibitious; for MIC90: read-out: MIC, 90% Inhibitious.
For assay [11], the system named is Bacteroides app. Kind of assay: MIC agar dilution assay, anaerobe bacteria (Table 1). As to conditions: for MIC50: read-out: MIC, 50% Inhibitious; for MIC90: read-out: MIC, 90% Inhibitious. Format: cell-based.
Assay [12] relates to Staphylococcus aureus MSSA. Kind of assay: MIC agar dilution assay (Table 1). Format: cell-based. As to conditions: for MIC50: read-out: MIC, 50% Inhibitious; for MIC90: read-out: MIC, 90% Inhibitious.
Assay [13] has as its system Streptococcus pneumoniae. Kind of assay: MIC agar dilution assay (Table 1). Format: cell-based.
The subject of assay [14] is SERRAT MARC. As to the kind of experiment: MIC agar dilution assay (Table III). Format: cell-based. The conditions noted are these: 18 h, read-out: MINIMAL INHIBITORY CONC. Here is the method: (§2) TEST: 406 METHOD: AGAR DIL
(§3) MEDIUM: MUEL-HIN INOCULUM: 1.OE+04 - 5.OE+04
(§4) INCUBATION: 18 Hrs. 35 Celsius

Assay [15] relates to MORG MORG. Kind of assay: MIC agar dilution assay (Table III). Format: cell-based. As to conditions: 18 h, read-out: MINIMAL INHIBITORY CONC. Here is the method:
as §2, §3, §4

The subject of assay [16] is STAPH AUR. Kind of assay: MIC agar dilution assay (Table III). Format: cell-based. The conditions noted are these: 18 h, 24 STAPH AUR CMC 83 131, 35 Celsius, read-out: MINIMAL INHIBITORY CONC. Here is the method:
as §2, §3, §4

Assay [17] concerns ESCH COLI. As to the kind of experiment: MIC agar dilution assay (Table III). Format: cell-based. As to conditions: 18 h, read-out: MINIMAL INHIBITORY CONC. Here is the method:
(§5) The results are summarized in Table III. |TEST: 406 METHOD: […] |MEDIUM: […] |INCUBATION: 18 Hrs. 35 Celsius | Aerobic: T

The test system of assay [18] is PSEU AERUG. Kind of assay: MIC agar dilution assay (Table III). Format: cell-based. The conditions noted are these: 18 h, read-out: MINIMAL INHIBITORY CONC. Here is the method: as §5
Assay [19] concerns CITRO DIV. Kind of assay: MIC agar dilution assay (Table III). Format: cell-based. The conditions noted are these: 18 CITRO DIV K 82 24; 18 Hrs, 35 Celsius; read-out: MINIMAL INHIBITORY CONC. Here is the method: as §5
Assay [20] has as its system PROV STUA. As to the kind of experiment: MIC agar dilution assay (Table III). Format: cell-based. As to conditions: 17 PROV STUA CMC 83 3; 18 Hrs, 35 Celsius; read-out: MINIMAL INHIBITORY CONC. Here is the method:
as §5

Assay [21] has as its system STREP FAEC. As to the kind of experiment: MIC agar dilution assay (Table III). As to conditions: 18 h, read-out: MINIMAL INHIBITORY CONC. Format: cell-based. Here is the method: as §5
[22] abbreviates: o/s, estimate of oral absorption, 10080 min.
Where [23] appears, read: read-out: MIC, 50% Inhibitious, 50%.
Setting [24] is: read-out: MIC, 90% Inhibitious, 90%.

In brackets after ≈: the same amount, converted by molar mass. Where two headings read alike, the source gives them in different places.

By ED50 is commonly meant the dose at which the effect has come halfway, by size or by number of responders. Lower therefore signals an effect at a small dose.

For `O=C(O)c1cn(C2CC2)c2cc(N3CCNCC3)c(F)cc2c1=O` [CF, Ciprofloxacin], the MIC50 in [1] (read-out: MIC, 50% Inhibitious) turned out to be 4 µg/mL (≈ 12.1 µM); in [8] (Staphylococcus aureus, MRSA) it was 1 µg/mL (≈ 3.02 µM); in assay [9] it was 1 µg/mL (≈ 3.02 µM); in assay [10] (Streptococcus) it was 0.5 µg/mL (≈ 1.51 µM); in [11] (Bacteroides) it was 16 µg/mL (≈ 48.3 µM); in [12] (Staphylococcus aureus, MSSA), 0.5 µg/mL (≈ 1.51 µM). Also, the MIC50 in assay [13] (read-out: MIC, 50% Inhibitious) turned out to be 1 µg/mL (≈ 3.02 µM). The MIC90 in assay [1] (read-out: MIC, 90% Inhibitious) came to 4 µg/mL (≈ 12.1 µM); in assay [8] (Staphylococcus aureus, MRSA), 1 µg/mL (≈ 3.02 µM); in assay [9] it was 2 µg/mL (≈ 6.04 µM); in assay [10] (Streptococcus), 1 µg/mL (≈ 3.02 µM); in assay [11] (Bacteroides), 16 µg/mL (≈ 48.3 µM); in assay [12] (Staphylococcus aureus, MSSA), 1 µg/mL (≈ 3.02 µM). Moreover, the MIC90 in assay [13] (read-out: MIC, 90% Inhibitious) came out at 2 µg/mL (≈ 6.04 µM). In addition, the ED50 in [2] (po) came to 21 mg/kg; in assay [2] (sc), 4 mg/kg; in assay [3] (po), 0.52 mg/kg; in assay [3] (sc) it was 0.07 mg/kg; in [4] (po), 4.3 mg/kg; in assay [4] (sc) it was 0.64 mg/kg. In addition, the ED50 in [5] (po) came out at 47 mg/kg; in assay [5] (sc), 15 mg/kg; in assay [6] (po) it was 5.9 mg/kg; in assay [6] (sc), 0.71 mg/kg; in [7] (po), 0.38 mg/kg; in assay [7] (sc) it was 0.07 mg/kg. Further, the “Ratio o/s of the ED50 values from oral and subcutaneous administration” value in [2] (setting [22]) is 5.3; in assay [3] (setting [22]), 7.4; in [4] (setting [22]) it was 6.7; in [5] (setting [22]), 3.1; in assay [6] (setting [22]), 8.3; in assay [7] (setting [22]), 4.8.
Consider `CCn1cc(C(=O)O)c(=O)c2cc(F)c(N3CCNCC3)nc21` [EC, Enoxacin], for which the MIC50 in assay [1] (setting [23]) worked out at 16 µg/mL (≈ 49.9 µM); in assay [11] (Bacteroides app., 50%) it was 16 µg/mL (≈ 49.9 µM). The MIC90 in assay [1] (setting [24]) came out at 16 µg/mL (≈ 49.9 µM).
Take `CN1CC2CC1CN2c1cc2c(cc1F)c(=O)c(C(=O)O)cn2-c1ccc(F)cc1` (stereo not shown) [Example 5, 6-Fluoro-1-(4-fluorophenyl)-1,4-dihydro-7(5-methyl-2,5-diazabicyclo(2.2.1)hept-2-yl)-4-oxoquinoline-3-carboxylic acid]: the MIC50 came to 4 µg/mL (≈ 9.72 µM) in assay [1] (read-out: MIC, 50% Inhibitious); 0.25 µg/mL (≈ 0.608 µM) in assay [8] (Staphylococcus aureus, MRSA); 4 µg/mL (≈ 9.72 µM) in [9]; 1 µg/mL (≈ 2.43 µM) in assay [10] (Streptococcus); 8 µg/mL (≈ 19.4 µM) in [11] (Bacteroides); 0.25 µg/mL (≈ 0.608 µM) in assay [12] (Staphylococcus aureus, MSSA). The MIC50 in assay [13] (read-out: MIC, 50% Inhibitious) amounted to 1 µg/mL (≈ 2.43 µM). Further, the MIC90 was 4 µg/mL (≈ 9.72 µM) in assay [1] (read-out: MIC, 90% Inhibitious); 1 µg/mL (≈ 2.43 µM) in [8] (Staphylococcus aureus, MRSA); 8 µg/mL (≈ 19.4 µM) in [9]; 4 µg/mL (≈ 9.72 µM) in assay [10] (Streptococcus); 8 µg/mL (≈ 19.4 µM) in assay [11] (Bacteroides); 0.5 µg/mL (≈ 1.22 µM) in assay [12] (Staphylococcus aureus, MSSA). The MIC90 in assay [13] (read-out: MIC, 90% Inhibitious) is 2 µg/mL (≈ 4.86 µM).
In the case of `CCn1cc(C(=O)O)c(=O)c2cc(F)c(N3CCN(C)CC3)cc21` [PF, Pefloxacin, reference compound], the median effective dose (ED50) in assay [3] (po) is 0.84 mg/kg; in assay [3] (sc), 0.48 mg/kg; in [4] (po), 3.8 mg/kg; in [4] (sc), 1.4 mg/kg; in assay [7] (po) it was 0.8 mg/kg; in [7] (sc), 0.71 mg/kg. For the same compound, the MIC was 0.06 µg/mL (≈ 0.18 µM) in [14] (10 SERRAT MARC MOR 84 41, 35 Celsius); 4 µg/mL (≈ 12 µM) in assay [14] (11 SERRAT MARC CMC 83 74, 35 Celsius); 0.03 µg/mL (≈ 0.09 µM) in assay [15] (14 MORG MORG CMC 84 38, 35 Celsius); 0.03 µg/mL (≈ 0.09 µM) in [15] (15 MORG MORG MOR 84 45, 35 Celsius); 2 µg/mL (≈ 6 µM) in assay [16]; 0.06 µg/mL (≈ 0.18 µM) in assay [17] (1 ESCH COLI MOR 84 20, 35 Celsius). Moreover, the MIC in [17] (2 ESCH COLI VGH 84 19, 35 Celsius) came to 0.06 µg/mL (≈ 0.18 µM); in [17] (3 ESCH COLI CMC 84 50, 35 Celsius), 0.06 µg/mL (≈ 0.18 µM); in assay [17] (28 ESCH COLI ATCC 25922, 35 Celsius), 0.03 µg/mL (≈ 0.09 µM); in assay [18] (19 PSEU AERUG K 84 16, 35 Celsius), 4 µg/mL (≈ 12 µM); in assay [18] (20 PSEU AERUG VGH 84 3, 35 Celsius), 8 µg/mL (≈ 24 µM); in assay [18] (21 PSEU AERUG CMC 83 20, 35 Celsius) it was 2 µg/mL (≈ 6 µM). In addition, the MIC in [19] was found to be 0.03 µg/mL (≈ 0.09 µM); in assay [20] it was 4 µg/mL (≈ 12 µM); in [21] (25 STREP FAEC UCI 85 30, 35 Celsius) it was 4 µg/mL (≈ 12 µM); in assay [21] (26 STREP FAEC VGH 84 69, 35 Celsius), 2 µg/mL (≈ 6 µM); in assay [21] (27 STREP FAEC CMC 83 120, 35 Celsius) it was 4 µg/mL (≈ 12 µM). Moreover, the MIC50 in [8] (Staphylococcus aureus MRSA, 50%) was 0.5 µg/mL (≈ 1.5 µM); in assay [9] (Streptococcus faecalis, 50%), 4 µg/mL (≈ 12 µM); in assay [10] (Streptococcus beta-hemolytic, 50%) it was 4 µg/mL (≈ 12 µM); in [12] (Staphylococcus aureus MSSA, 50%), 0.5 µg/mL (≈ 1.5 µM); in assay [13] (setting [23]), 4 µg/mL (≈ 12 µM). The MIC90 was 1 µg/mL (≈ 3 µM) in assay [8] (Staphylococcus aureus MRSA, 90%); 8 µg/mL (≈ 24 µM) in [9] (Streptococcus faecalis, 90%); 8 µg/mL (≈ 24 µM) in [10] (Streptococcus beta-hemolytic, 90%); 1 µg/mL (≈ 3 µM) in assay [12] (Staphylococcus aureus MSSA, 90%); 8 µg/mL (≈ 24 µM) in [13] (setting [24]).

Source of the values: patent publication US5045549A, “Substituted 4-pyridone 3-carboxylic acid derivatives, method for their production and their pharmaceutical compositions” (priority 1986, dated 1991).
